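Following 48 hours of exposure in 96-well plates, responses at five concentrations were used to interpolate endpoints linearly. Abbreviation: GI50, concentration required for 50% inhibition of growth.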 Calls of active or inactive are those of the source. Cut-off read from the data, not from the text of the source: active = GI50 up to about 1.1 µM and inactive = higher.
Experiments:
Test in all cases: NCI tumour cell line growth inhibition, 48 h
A549 = test system: A549
Malme-3M = test system: Malme-3M
EKVX = test system: EKVX
UACC-257 = test system: UACC-257
ACHN = test system: ACHN
UACC-62 = test system: UACC-62
786-0 = test system: 786-0
A498 = test system: A498
OVCAR-8 = test system: OVCAR-8
HT-29 = test system: HT-29
NCI-H460 = test system: NCI-H460
SF-539 = test system: SF-539
RPMI-8226 = test system: RPMI-8226
TK-10 = test system: TK-10
HCT-116 = test system: HCT-116
PC-3 = test system: PC-3
MDA-MB-435 = test system: MDA-MB-435
NCI/ADR-RES = test system: NCI/ADR-RES
MDA-MB-231 = test system: MDA-MB-231

Measured: GI50

CC1=NN(C(=O)Cc2ccccc2)C(=O)/C1=C\c1ccc([N+](=O)[O-])cc1
inactive: A549 > 100 µM | Malme-3M > 100 µM | EKVX > 100 µM | UACC-257 > 100 µM | ACHN > 100 µM | UACC-62 > 100 µM | 786-0 > 100 µM | A498 > 100 µM | OVCAR-8 > 100 µM | HT-29 > 100 µM | NCI-H460 > 100 µM | SF-539 > 100 µM | RPMI-8226 > 100 µM | TK-10 > 100 µM | HCT-116 > 100 µM

CCCOP(=S)(N1CC1)N1CC1
inactive: A549 > 100 µM | Malme-3M > 100 µM | EKVX > 100 µM | UACC-257 24.8 µM | ACHN > 100 µM | UACC-62 > 100 µM | 786-0 > 100 µM | A498 > 100 µM | OVCAR-8 > 100 µM | HT-29 > 100 µM | NCI-H460 > 100 µM | SF-539 > 100 µM | RPMI-8226 > 100 µM | TK-10 > 100 µM | HCT-116 > 100 µM

CCOC(=O)/C(ON)=C(/CC/C(C(=O)OC)=C(\ON)C(=O)OCC)C(=O)OC
inactive: A549 > 100 µM | Malme-3M > 100 µM | EKVX > 100 µM | UACC-257 > 100 µM | ACHN > 100 µM | UACC-62 > 100 µM | 786-0 > 100 µM | A498 > 100 µM | OVCAR-8 > 100 µM | HT-29 > 100 µM | NCI-H460 > 100 µM | SF-539 > 100 µM | RPMI-8226 > 100 µM | TK-10 > 100 µM | HCT-116 > 100 µM

C=C1C(=O)O[C@H]2C/C(C)=C/CC[C@]3(C)CCC[C@](C)(CC[C@@H]12)O3
inactive: PC-3 12.6 µM | MDA-MB-435 7.01 µM | A549 16.6 µM | EKVX 9.04 µM | UACC-257 8.85 µM | NCI/ADR-RES 7.91 µM | ACHN 8.99 µM | UACC-62 8.69 µM | 786-0 5.77 µM | MDA-MB-231 13.3 µM | OVCAR-8 7.64 µM | HT-29 8.26 µM | NCI-H460 6.79 µM | SF-539 9.48 µM | RPMI-8226 5.93 µM | TK-10 8.38 µM | HCT-116 8.69 µM

CCOC(=O)C1=C(C)N(c2ccc(C)cc2)C2=C(C(=O)N(c3ccccc3)C2c2ccccc2)C1c1ccccc1 (centres undefined)
inactive: A549 10.7 µM | Malme-3M > 25 µM | EKVX > 25 µM | UACC-257 > 25 µM | ACHN 16.6 µM | UACC-62 17.2 µM | 786-0 > 25 µM | A498 > 25 µM | OVCAR-8 > 25 µM | HT-29 > 25 µM | NCI-H460 13.3 µM | SF-539 > 25 µM | RPMI-8226 14 µM | TK-10 > 25 µM | HCT-116 17.6 µM

Cc1cc2c(cc1C)[n+]([O-])c(C(=O)C/C(=N/NC(=S)NN)C(=O)Nc1cccc(C(F)(F)F)c1)c[n+]2[O-]
inactive: A549 > 100 µM | Malme-3M > 100 µM | EKVX > 100 µM | UACC-257 > 100 µM | ACHN > 100 µM | UACC-62 > 100 µM | 786-0 > 100 µM | A498 > 100 µM | OVCAR-8 > 100 µM | HT-29 > 100 µM | NCI-H460 > 100 µM | SF-539 > 100 µM | RPMI-8226 > 100 µM | TK-10 > 100 µM | HCT-116 > 100 µM

Cc1n[nH]c(=O)n1/N=C/c1ccncc1
inactive: MDA-MB-435 > 100 µM | A549 > 100 µM | Malme-3M > 100 µM | EKVX > 100 µM | UACC-257 > 100 µM | NCI/ADR-RES > 100 µM | ACHN > 100 µM | UACC-62 > 100 µM | 786-0 > 100 µM | MDA-MB-231 > 100 µM | A498 > 100 µM | OVCAR-8 > 100 µM | HT-29 > 100 µM | NCI-H460 > 100 µM | SF-539 > 100 µM | TK-10 > 100 µM | HCT-116 > 100 µM
